{"source": "patent US20090211893A1", "about": "“Photo-Activatable Amino Acids” (priority 2005, published 2009)", "key": {"[1]": {"tested_on": "caveolin-1", "assay": "Photo-crosslinking of transfected caveolin-1 in COS7 cells", "assay_type": "cell-based, human", "settings": "irradiated samples, COS7 cells in LM-4", "protocol": "FIG. 3: Photo-crosslinking induced by photo-amino acids. COS7 cells (panels a,b) or HeLa cells (panel c) were grown in LM-4 (panel a) or LM-2 (panels b,c) in the absence or presence of L-photo-Leu (pL), L-photo-Met (pM) or DL-photo-Ile (pl) or mixtures of them (pLM or PLMI) followed by UV irradiation (+) or no irradiation (−). cross-linked products formed after UV-irradiation were detected by SDS-PAGE followed by western blotting using (a) anti-caveolin 1 to detect overexpressed caveolin 1, (b) anti-stomatin to detect endogenous stomatin or (c) anti-EEA1 to detect endogenous EEA1. In panel b, lanes 8 and 9 show cross-linking with two different concentrations of the chemical cross-linker DSS for comparison of cross-linking efficiency. In panel c, photocrosslinking of endogenous EEA1 by photo-Leu and photo-Met is compared to chemical cross-linking using DSS or para-formaldehyde (PFA) as indicated. Note that chemical cross-linking leads to protein aggregates that are not resolvable by SDS-PAGE while photocrosslinking identifies more than six discrete cross-linked bands.\nCOS7 (monkey kidney) cells were grown in DMEM high glucose (Gibco no. 11995; with L-glutamine and Na-pyruvate)+10% FCS. Typically, 3 cm2 of cells are needed for a cross-linking experiment with detection by western blotting. At about 70%, medium was replaced by LM-4 (DMEM lacking Met, Leu, Ile and Val and phenol red, supplemented with 5% dialyzed FCS) or by LM-2 (LM-4+1 mM of each Ile and Val). Photo-amino acids were added to a final concentration of 4 mM photo-Leu and photo-Ile, 1.7 mM photo-Met and cells were cultivated for further 22 h followed by washing with PBS and UV-irradiation using a 200 W high pressure mercury lamp (Oriel Photomax) with a glass filter to remove wavelengths shorter 310 nm. The samples were placed at a distance of 38 cm to the light source, corresponding to a illuminated area of 105 mm diameter. […] We used an irradiation time 1-3 min for experiments with living cells. […] Lysis of cells, SDS-PAGE and western blotting were done as described^33. […]"}, "[2]": {"tested_on": "HA-tagged human PGRMC1", "assay": "Competition of PGRMC1 cross-linking by natural amino acids", "assay_type": "cell-based", "settings": "3 mM competing amino acid, COS7 cells in LM-4", "protocol": "FIG. 4: Specificity of incorporation and cross-linking by photo-Met and photo-Leu. COS7 cells were transfected with HA-tagged human PGRMC1 and were grown in LM-4 in the absence or presence of photo-Leu (A) or photo-Met (B) with addition of 3 mM of the indicated competing amino acid. cross-linked products formed after UV-irradiation were detected by SDS-PAGE followed by western blotting against the HA-epitope. (C) COS7 cells were grown in the presence of 1.7 mM [1-^14C]photo-Met, a constant trace amount of [^3H]Phe and 3 mM of competing unlabeled amino acids as indicated in the legend. Protein was precipitated and protein-bound radioactivity was determined by scintillation counting. […] The control value obtained in the absence of competing amino acid (con) is set to 100. Data are average±SD of triplicate determinations.\nIf so, addition of the complementary naturally occurring amino acid should strongly reduce incorporation and inhibit photo-crosslinking. […] To find out if competition for cross-linking reflects competition for incorporation, we competed incorporation of [1-^14C]photo-Met with the same set of amino acids (FIG. 4c). […] It should be noted that Met, Val, Leu and Ile all are transported into cells by the L-type transport system^25, which presumably also transports the three photo-amino acids. The strong difference in competition by Met and Leu versus Val and Ile excludes competition at the level of uptake."}, "[3]": {"tested_on": "Insig-1 and PGRMC1", "assay": "Photo-crosslinking of Insig-1 and PGRMC1 with immunoprecipitation and western blotting", "assay_type": "cell-based, human", "settings": "COS7 cells, UV-irradiated, IP anti-HA, blot anti-myc", "excerpt": "Cells were UV-irradiated or not irradiated as indicted, lysed and subjected to immunoprecipitation (IP) with anti-HA or anti-myc antibodies as indicated. Immunoprecipitated proteins were separated by SDS-PAGE and probed (WB) for the presence of cross-links with anti-myc antibody or anti-HA antibody as indicated. The small difference in apparent molecular weight of the cross-link is due to different percentage of SDS-PAGE gels used. The presence of uncrosslinked Insig-1 in the left lanes indicates non-covalent co-immunoprecipitation. The strong band in lanes 3 and 4 (IgG-HC) is crossreacting IgG heavy chain.\nCOS7 (monkey kidney) cells were grown in DMEM high glucose (Gibco no. 11995; with L-glutamine and Na-pyruvate)+10% FCS. […]\nThe methods of the invention have been applied to the study of protein-protein interactions between membrane proteins. […] To detect the cross-linked proteins, detergent extracts were immunoprecipitated for PGRMC1 with anti-HA antibody and precipitates analyzed for Insig-1 by western blotting with anti-myc antibody. If cells were grown in the absence of photo-Met, only a small amount of co-immunoprecipitated Insig-1, but no cross-linked band was detected (FIG. 6a, lane 2). […] An identical band was detected using the inverted order of detection, i.e. immunoprecipitation with anti-myc followed by blotting with anti-HA antibody (FIG. 6a, lane 3). […]"}}, "data": [{"smiles": "CC1(CCC(N)C(=O)O)N=N1", "note": "[photo-Met, L-2-amino-5,5′-azi-hexanoic acid]", "values": [{"measurement": "formation of covalent caveolin dimers upon UV irradiation", "setting": "[1]", "value": "significant formation of a cross-linked dimer"}, {"measurement": "competition of cross-linking by Met, Val, Leu and Ile", "setting": "[2]", "value": "mainly by Met, and to a lower extent by Leu"}, {"measurement": "effect of Val and Ile on cross-linking", "setting": "[2]", "value": "did not compete, but even enhance"}, {"measurement": "Insig-1×PGRMC1 cross-linked band", "setting": "[3]", "value": "a strong band appeared"}]}]}
